{"source": "paper PMC6413339", "about": "(EBioMedicine, 2019)", "target": "T1, FLT3 (Homo sapiens, UniProt P36888)", "T1 construct": "purchased Invitrogen PV3182", "T1 sequence (P36888 564-993 limits assumed)": "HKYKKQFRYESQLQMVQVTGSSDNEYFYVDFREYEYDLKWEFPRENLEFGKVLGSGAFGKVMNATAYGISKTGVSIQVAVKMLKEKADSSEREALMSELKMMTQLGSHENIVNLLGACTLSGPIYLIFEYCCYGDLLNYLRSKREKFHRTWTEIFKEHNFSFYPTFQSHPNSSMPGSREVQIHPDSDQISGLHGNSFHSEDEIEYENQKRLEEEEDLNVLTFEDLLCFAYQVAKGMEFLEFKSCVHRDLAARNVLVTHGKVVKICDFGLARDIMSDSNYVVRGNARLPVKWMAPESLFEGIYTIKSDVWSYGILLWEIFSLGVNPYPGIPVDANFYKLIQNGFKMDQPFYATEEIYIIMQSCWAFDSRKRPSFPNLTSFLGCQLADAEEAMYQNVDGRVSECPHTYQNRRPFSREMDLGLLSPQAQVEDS", "assay": "Cell-free kinase assay, single dose (Reaction Biology, ADP-Glo)", "type": "biochemical", "details": "inhibitor 500 nM; 100 μM ATP; average of duplicate", "procedure": "Cell-free kinase activity assays were performed at Reaction Biology Corporation. […] DMSO was used as control. […] Experiments were performed in duplicates. The concentrations of kinases and substrates used in the assays are indicated on Table S1. Kinase activity was quantified using the ADP-Glo™ Kinase Assay System (Promega, Madison, WI) following the manufacturer's recommendations.", "data": [{"smiles": "Cc1ncc(C(=O)Nc2ccc(CN3CCN(C)CC3)c(C(F)(F)F)c2)cc1C#Cc1c(N)ncc2ccc(F)cc12", "note": "[Compound 7]", "values": [{"measurement": "inhibition at 0.5 µM", "value": 97, "unit": "%"}]}]}
